This is an account of results in PMC10906926 (Science Advances, 2024).

This assay concerns DIO mice. Briefly: Weight loss recovery of mPD5 relative to liraglutide. It is filed as in vivo. The conditions noted are these: 0.09 mg kg−1 s.c. once daily for 9 days.

Turning to liraglutide, the “Weight regain upon treatment cessation” value is given as “promptly initiated weight regain upon treatment cessation”.
